Read-outs that look alike come from different tables or passages of the source.
Experiments:
A2A receptor = A2A receptor (Homo sapiens, UniProt P29274); assay: A2A receptor antagonist functional assay (cAMP, A2A cell line); format: cell-based
Description: (§1) A2a/A2B Receptor Antagonist Functional Assay Test:
(§2) The A2A cell line was derived from PerkinElmer (Product ID: ES-011-C); the A2B cell line was derived from PerkinElmer (Product ID: ES-013-C). The experimental procedure was referred to ACS Medicinal Chemistry Letters (2011) 2, 213-218; the specific test was completed by Pharmaron Beijing Co., Ltd. with the following steps: 10 nL of compound stock in DMSO (10 mM) followed by 10 μL of A2A or A2B cell suspension (30000 cells/mL) were transferred to assay wells of a 384-well plate at room temperature and incubated for 20 minutes at room temperature. The corresponding amount of 5′-N-ethylcarboxamidoadenosine at EC80 activation concentration was transferred to each test well, and incubated for another 30 minutes at 37° C., 5% CO2, 95% humidity, then Eu-cAMP tracer working solution and Ulight-anti-cAMP working solution were added to the cell culture plate at 5 uL/well in sequence, and the cell plate fluorescence was read with Envision (excitation wavelength: 320 nm, emission wavelength: 665 nm and 615 nm). The corresponding inhibition rate in each well was obtained according to the following formula, and a sigmoidal dose-inhibition rate curve was plotted using a non-linear regression model to calculate the IC50 value.

A2B receptor = biological target: T1, A2B receptor (Homo sapiens, UniProt P29275); assay: cell-based
T1 sequence (P29275 1-332): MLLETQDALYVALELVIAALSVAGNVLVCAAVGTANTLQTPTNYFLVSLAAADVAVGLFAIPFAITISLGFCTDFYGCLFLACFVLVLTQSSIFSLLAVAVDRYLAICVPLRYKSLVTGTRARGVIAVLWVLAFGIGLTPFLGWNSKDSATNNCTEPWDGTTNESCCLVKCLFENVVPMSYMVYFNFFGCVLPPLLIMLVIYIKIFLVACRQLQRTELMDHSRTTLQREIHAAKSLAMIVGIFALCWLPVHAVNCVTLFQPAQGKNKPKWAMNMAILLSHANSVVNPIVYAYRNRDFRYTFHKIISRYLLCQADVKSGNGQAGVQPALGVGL
Description: as §1
as §2, with “The experimental procedure was referred to ACS Medicinal Chemistry Letters (2011) 2, 213-218; the specific test was completed by Pharmaron Beijing Co., Ltd. with the following steps: 10 nL of compound stock in DMSO (10 mM) followed by 10 μL of A2A or A2B cell suspension (30000 cells/mL) were transferred to assay wells of a 384-well plate at room temperature and incubated for 20 minutes at room temperature.” left out

[1] = A2A cell line (PerkinElmer ES-011-C), 5'-N-ethylcarboxamidoadenosine at EC80, cAMP readout, read-out: A2A Antagonistic function IC50
[2] = A2B cell line (PerkinElmer ES-013-C), 5'-N-ethylcarboxamidoadenosine at EC80, cAMP readout, read-out: A2B Antagonistic function IC50

A2A receptor, sequence (P29274 whole entry): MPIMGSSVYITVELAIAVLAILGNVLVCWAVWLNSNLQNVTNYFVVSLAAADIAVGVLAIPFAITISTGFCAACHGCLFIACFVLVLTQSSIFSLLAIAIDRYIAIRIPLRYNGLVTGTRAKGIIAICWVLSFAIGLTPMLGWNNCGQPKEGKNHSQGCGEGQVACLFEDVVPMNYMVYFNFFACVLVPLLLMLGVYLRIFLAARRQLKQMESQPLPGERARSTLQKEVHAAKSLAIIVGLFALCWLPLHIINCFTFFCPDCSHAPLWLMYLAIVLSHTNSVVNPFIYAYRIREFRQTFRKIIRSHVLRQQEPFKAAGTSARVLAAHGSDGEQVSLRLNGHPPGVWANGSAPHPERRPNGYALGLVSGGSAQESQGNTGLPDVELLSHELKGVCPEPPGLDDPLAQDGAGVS

Structure (SMILES) | IC50 (A2A receptor) [nM] | IC50 (A2B receptor) [nM] | IC50 (A2A receptor; [1]) [nM] | IC50 (A2A receptor; read-out: A2A Antagonistic function IC50) [nM] | IC50 (A2B receptor; [2]) [nM]
Cc1ccc(-c2nc(N)nc3c(Cc4ccc(F)cc4)cnn23)o1 [Compound 1] | 3.3 | 16 |  |  | 
COCc1cccc(Cc2cnn3c(-c4ccc(C)o4)nc(N)nc23)n1 [Compound 2] |  | 25 | 1.8 |  | 
COCc1cccc(Cc2cnn3c(-c4cccs4)nc(N)nc23)n1 [Compound 3] | 96 |  |  |  | 
COCc1cccc(Cc2cnn3c(-n4ccc(C)n4)nc(N)nc23)n1 [Compound 4] | 17 |  |  |  | 
Cc1ccc(-c2nc(N)nc3c(Cc4cccc(CO)n4)cnn23)o1 [Compound 5] |  | 16.7 | 5.3 |  | 
Cc1ccc(-c2nc(N)nc3c(Cc4cccc(CBr)n4)cnn23)o1 [Compound 6] | 10.2 |  |  |  | 
COCCOCc1cccc(Cc2cnn3c(-c4ccc(C)o4)nc(N)nc23)n1 [Compound 7] |  | 103 |  | 7.1 | 
COCCNCc1cccc(Cc2cnn3c(-c4ccc(C)o4)nc(N)nc23)n1 [Compound 8] | 31 |  |  |  | 117
Cc1ccc(-c2nc(N)nc3c(Cc4cccc(COC5CC5)n4)cnn23)o1 [Compound 9] | 3.6 |  |  |  | 51
Cc1ccc(-c2nc(N)nc3c(Cc4ccc(F)cc4F)cnn23)o1 [Compound 10] | 5 |  |  |  | 16.4
Cc1ccc(-c2nc(N)nc3c(Cc4ccc(F)cc4C)cnn23)o1 [Compound 11] | 39 |  |  |  | 420
Cc1ccc(-c2nc(N)nc3c(Cc4c(F)cc(F)cc4F)cnn23)o1 [Compound 12] | 1.5 |  |  |  | 3.8
Cc1ccc(-c2nc(N)nc3c(CC4CCCCC4)cnn23)o1 [Compound 13] | 5.7 |  |  |  | 
Cc1ccc(-c2nc(N)nc3c(CC4CCCC4)cnn23)o1 [Compound 14] | 10.4 |  |  |  | 
Cc1ccc(-c2nc(N)nc3c(CC4CCC4)cnn23)o1 [Compound 15] | 16 |  |  |  | 
COc1cccc(Cc2cnn3c(-c4ccc(C)o4)nc(N)nc23)n1 [Compound 16] | 2.3 |  |  |  | 18.6
Cc1ccc(-c2nc(N)nc3c(Cc4cccc(CO[C@H]5CCOC5)[n+]4[O-])cnn23)o1 [Compound 17] | 90 |  |  |  | 1030
Cc1ccc(-c2nc(N)nc3c(Cc4cccc(CO[C@H]5CCOC5)n4)cnn23)o1 [Compound 18] |  | 108 | 9.1 |  | 

Structure (SMILES) | IC50 (A2A receptor) [nM] | IC50 (A2B receptor) [nM] | IC50 (A2A receptor; [1]) [nM] | IC50 (A2A receptor; read-out: A2A Antagonistic function IC50) [nM] | IC50 (A2B receptor; [2]) [nM]
Cc1ccc(-c2nc(N)nc3c(Cc4cccc(C(C)(C)O)n4)cnn23)o1 [Compound 19] | 1.7 | 70.5 |  |  | 
Cc1ccc(-c2nc(N)nc3c(Cc4cccc(NCc5ccccc5)n4)cnn23)o1 [Compound 20] | 5.5 | 26 |  |  | 
COCCNc1cccc(Cc2cnn3c(-c4ccc(C)o4)nc(N)nc23)n1 [Compound 21] | 4.7 |  |  |  | 36
Cc1ccc(-c2nc(N)nc3c(Cc4cccc(N)n4)cnn23)o1 [Compound 22] | 5.8 |  |  |  | 1.6
Nc1cccc(Cc2cnn3c(-c4ccco4)nc(N)nc23)n1 [Compound 23] | 46 |  |  |  | 13
Cc1ccc(-c2nc(N)nc3c(Cc4cccc(N)c4)cnn23)o1 [Compound 24] | 3 |  |  |  | 7.9
Nc1cccc(Cc2cnn3c(-c4ccco4)nc(N)nc23)c1 [Compound 25] | 35 |  |  |  | 60
Cc1ccc(-c2nc(N)nc3c(Cc4ccc(N)cc4)cnn23)o1 [Compound 26] | 17.4 |  |  |  | 2.7
Cc1ccc(-c2nc(N)nc3c(Cc4ccccc4N)cnn23)o1 [Compound 27] | 1.9 |  |  |  | 9.7
Cc1ccc(-c2nc(N)nc3c(Cc4cc(N)c(F)cc4F)cnn23)o1 [Compound 28] | 1.6 |  |  |  | 7.7
Cc1ccc(-c2nc(N)nc3c(Cc4ccc(N)c(C)c4)cnn23)o1 [Compound 29] | 5.5 |  |  |  | 15.3
Cc1ccc(-c2nc(N)nc3c(Cc4ccc(N)c(C)c4)c(C)nn23)o1 [Compound 30] | 5 |  |  |  | 
Cc1ccc(N)c(Cc2cnn3c(-c4ccc(C)o4)nc(N)nc23)c1 [Compound 44] | 6.2 |  |  |  | 155
Cc1ccc(-c2nc(N)nc3c(Cc4cccc(N)c4)c(C)nn23)o1 [Compound 45] | 1.9 |  |  |  | 6.2
Cc1ccc(-c2nc(N)nc3c(Cc4cccc(N)c4)c(Cl)nn23)o1 [Compound 46] | 1.5 |  |  |  | 4.6
Cc1ccc(-c2nc(N)nc3c(Cc4cccc(N)c4)c(F)nn23)o1 [Compound 47] | 1.4 |  |  |  | 4
Cn1ccc(-c2nc(N)nc3c(Cc4cccc(N)c4)cnn23)n1 [Compound 48] | 29.1 |  |  |  | 83.5
